The target of one test is T1, BRM (Homo sapiens, UniProt P51531).
T1 construct: made in house; host or cells: High Five insect cells
Description: ATPase catalytic activity assay of BRM (ADP-Glo). The format is biochemical. Conditions: 30 nM BRM, 400 μM ATP, 20 nM salmon sperm DNA, 1 hour at room temperature. On the procedure: (§1) Example 38. Assay for ATPase Catalytic Activity of BRM and BRG-1
(§2) The ADP-Glo™ kinase assay is performed in two steps once the reaction is complete.
(In ADP-Glo the light output rises with the ADP produced.)

Another test has as its target T2, BRG-1 (Homo sapiens, UniProt P51532).
T2 construct: made in house; host or cells: High Five insect cells
In words: ATPase catalytic activity assay of BRG-1 (ADP-Glo). The format is biochemical. Conditions: 30 nM BRG-1, 400 μM ATP, 20 nM salmon sperm DNA, 1 hour at room temperature; read-out: BRG1 ATPase: IC50. On the procedure:
as §1, §2

Each structure is given as a SMILES string.

T2 sequence (P51532 whole entry): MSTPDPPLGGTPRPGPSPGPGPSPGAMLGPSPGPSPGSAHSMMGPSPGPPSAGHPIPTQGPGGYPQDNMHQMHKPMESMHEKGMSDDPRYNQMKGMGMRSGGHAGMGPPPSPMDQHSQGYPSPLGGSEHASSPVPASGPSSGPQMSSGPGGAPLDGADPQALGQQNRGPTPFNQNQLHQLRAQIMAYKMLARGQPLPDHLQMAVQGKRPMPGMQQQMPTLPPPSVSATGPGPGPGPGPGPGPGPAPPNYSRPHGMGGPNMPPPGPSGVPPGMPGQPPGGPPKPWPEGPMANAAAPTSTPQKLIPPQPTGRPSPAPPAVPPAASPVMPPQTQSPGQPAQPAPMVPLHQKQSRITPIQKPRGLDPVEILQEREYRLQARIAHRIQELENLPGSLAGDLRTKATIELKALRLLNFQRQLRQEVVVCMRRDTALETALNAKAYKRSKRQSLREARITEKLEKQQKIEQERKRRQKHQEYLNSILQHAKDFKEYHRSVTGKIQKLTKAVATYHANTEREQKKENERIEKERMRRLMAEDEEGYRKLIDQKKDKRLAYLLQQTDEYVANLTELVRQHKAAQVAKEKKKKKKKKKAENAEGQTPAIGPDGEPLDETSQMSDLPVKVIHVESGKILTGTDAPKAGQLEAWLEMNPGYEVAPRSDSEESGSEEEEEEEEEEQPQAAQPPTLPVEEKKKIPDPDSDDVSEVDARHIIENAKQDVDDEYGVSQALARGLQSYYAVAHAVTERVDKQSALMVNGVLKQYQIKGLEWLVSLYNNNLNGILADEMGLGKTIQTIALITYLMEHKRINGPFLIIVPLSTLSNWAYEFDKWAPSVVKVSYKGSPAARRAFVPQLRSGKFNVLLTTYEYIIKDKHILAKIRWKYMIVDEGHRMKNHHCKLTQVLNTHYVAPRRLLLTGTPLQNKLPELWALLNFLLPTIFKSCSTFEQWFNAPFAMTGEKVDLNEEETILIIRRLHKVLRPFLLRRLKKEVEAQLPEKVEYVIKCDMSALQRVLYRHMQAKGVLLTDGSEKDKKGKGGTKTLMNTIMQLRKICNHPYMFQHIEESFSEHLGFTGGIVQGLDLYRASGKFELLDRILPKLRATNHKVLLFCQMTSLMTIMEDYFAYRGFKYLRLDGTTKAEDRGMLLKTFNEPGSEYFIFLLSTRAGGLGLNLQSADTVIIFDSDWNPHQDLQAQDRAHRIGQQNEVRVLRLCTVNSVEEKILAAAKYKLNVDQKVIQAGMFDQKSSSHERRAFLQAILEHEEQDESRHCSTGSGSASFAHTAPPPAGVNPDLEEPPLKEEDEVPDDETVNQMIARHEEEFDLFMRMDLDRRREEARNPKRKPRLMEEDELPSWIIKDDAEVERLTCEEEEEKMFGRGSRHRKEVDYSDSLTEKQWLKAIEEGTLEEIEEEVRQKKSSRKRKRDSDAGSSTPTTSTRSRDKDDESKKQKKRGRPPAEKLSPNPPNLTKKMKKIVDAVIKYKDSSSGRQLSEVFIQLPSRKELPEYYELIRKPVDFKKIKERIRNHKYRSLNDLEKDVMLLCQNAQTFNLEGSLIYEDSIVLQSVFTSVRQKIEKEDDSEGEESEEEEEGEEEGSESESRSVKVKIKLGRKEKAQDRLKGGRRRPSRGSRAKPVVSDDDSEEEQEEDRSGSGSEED
T1 sequence (P51531 whole entry): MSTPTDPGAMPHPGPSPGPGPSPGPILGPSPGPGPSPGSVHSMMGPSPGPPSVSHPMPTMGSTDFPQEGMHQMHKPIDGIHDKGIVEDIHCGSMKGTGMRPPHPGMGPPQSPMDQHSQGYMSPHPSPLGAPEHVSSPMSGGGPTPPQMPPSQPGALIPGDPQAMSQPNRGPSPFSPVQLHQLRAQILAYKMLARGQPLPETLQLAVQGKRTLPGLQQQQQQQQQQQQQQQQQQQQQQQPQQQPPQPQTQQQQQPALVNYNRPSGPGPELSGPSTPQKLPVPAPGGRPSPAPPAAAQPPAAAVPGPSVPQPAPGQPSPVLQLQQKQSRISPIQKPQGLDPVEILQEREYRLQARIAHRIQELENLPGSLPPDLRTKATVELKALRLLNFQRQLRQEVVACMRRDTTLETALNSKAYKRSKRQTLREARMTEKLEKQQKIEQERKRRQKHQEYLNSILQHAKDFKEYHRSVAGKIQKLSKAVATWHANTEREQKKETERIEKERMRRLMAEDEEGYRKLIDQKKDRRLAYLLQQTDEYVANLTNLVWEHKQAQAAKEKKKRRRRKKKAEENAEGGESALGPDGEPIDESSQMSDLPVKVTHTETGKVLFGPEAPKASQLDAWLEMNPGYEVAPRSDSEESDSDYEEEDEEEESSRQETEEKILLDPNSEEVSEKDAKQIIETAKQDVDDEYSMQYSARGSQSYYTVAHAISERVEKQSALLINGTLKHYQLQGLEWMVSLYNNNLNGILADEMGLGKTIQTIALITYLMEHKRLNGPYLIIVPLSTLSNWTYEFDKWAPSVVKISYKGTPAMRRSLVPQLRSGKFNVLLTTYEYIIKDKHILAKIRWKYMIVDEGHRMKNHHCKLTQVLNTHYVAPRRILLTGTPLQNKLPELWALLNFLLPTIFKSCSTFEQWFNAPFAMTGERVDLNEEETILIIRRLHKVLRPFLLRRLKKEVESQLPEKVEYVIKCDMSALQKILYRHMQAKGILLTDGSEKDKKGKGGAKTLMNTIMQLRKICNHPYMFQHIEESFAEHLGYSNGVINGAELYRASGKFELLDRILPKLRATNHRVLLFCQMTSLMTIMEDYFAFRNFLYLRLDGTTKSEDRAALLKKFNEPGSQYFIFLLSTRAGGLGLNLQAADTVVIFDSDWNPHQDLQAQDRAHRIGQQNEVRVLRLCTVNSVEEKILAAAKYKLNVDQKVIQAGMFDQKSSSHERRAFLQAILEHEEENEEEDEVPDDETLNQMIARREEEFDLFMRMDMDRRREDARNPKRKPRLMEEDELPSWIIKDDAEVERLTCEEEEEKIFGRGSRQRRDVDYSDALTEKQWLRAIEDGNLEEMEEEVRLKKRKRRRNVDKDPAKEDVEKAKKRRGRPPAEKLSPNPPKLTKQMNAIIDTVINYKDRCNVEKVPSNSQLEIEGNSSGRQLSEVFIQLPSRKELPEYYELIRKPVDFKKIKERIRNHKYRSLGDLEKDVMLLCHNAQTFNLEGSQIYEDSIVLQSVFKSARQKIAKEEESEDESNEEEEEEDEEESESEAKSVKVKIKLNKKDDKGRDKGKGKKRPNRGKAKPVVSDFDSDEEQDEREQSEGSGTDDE

A word on the IC50: it is the point on the concentration scale where inhibition reaches its midpoint. As for `Cn1cc(-c2cccc(-c3ccc4cnc(CNC(=O)c5ccn(S(C)(=O)=O)c5)cc4n3)c2)cn1` [Compound 71], the values for the half-maximal inhibitory concentration (IC50) at BRM and on BRG-1 were 10 to 100 nM and 100 to 1000 nM, respectively.

Turning to `CS(=O)(=O)n1ccc(C(=O)NCc2nc3ccc(-c4ccccc4)cc3[nH]2)c1` [Compound 27], the IC50 on BRM and on BRG-1 was 100 to 1000 nM each time.

Regarding `CS(=O)(=O)n1ccc(C(=O)NCc2cc3nc(-c4ccc5c(c4)CCO5)ccc3cn2)c1` [Compound 67], the IC50 against BRM and at BRG-1 was 100 to 1000 nM throughout.

Turning to `CS(=O)(=O)n1ccc(C(=O)NCc2nc3ccc(-c4cccc(N5CCC(O)CC5)c4)nc3[nH]2)c1` [Compound 12, N-((5-(3-(4-hydroxypiperidin-1-yl)phenyl)-3H-imidazo[4,5-b]pyridin-2-yl)methyl)-1-(methylsulfonyl)-1H-pyrrole-3-carboxamide], the IC50 against BRM and at BRG-1 was 100 to 1000 nM throughout.

Consider `CC(C)(C)n1ccc(C(=O)NCc2nc3ccc(-c4ccc5ncccc5c4)cc3[nH]2)c1` [Compound 34], for which the IC50 against BRM and on BRG-1 was 10 to 100 nM each time.

For the compound `COCCOc1ccc(-c2ccc3nc(CNC(=O)c4ccn(C(C)(C)C)c4)[nH]c3c2)cc1` [Compound 59], the IC50 against BRM and on BRG-1 was 100 to 1000 nM each time.

Regarding `CS(=O)(=O)n1ccc(C(=O)NCc2nc3ccc(-c4cccc(N5CCC(O)CC5)c4)cc3[nH]2)c1` [Compound 8, N-((6-(3-(4-hydroxypiperidin-1-yl)phenyl)-1H-benzo[d]imidazol-2-yl)methyl)-1-(methylsulfonyl)-1H-pyrrole-3-carboxamide], the IC50 was in the range of 10 to 100 nM against BRM and 100 to 1000 nM at BRG-1.

As for `CN1CCc2cc(-c3ccc4cnc(CNC(=O)c5ccn(S(C)(=O)=O)c5)cc4n3)ccc21` [Compound 72], the IC50 against BRM and on BRG-1 was 100 to 1000 nM throughout.

For the compound `CS(=O)(=O)n1ccc(C(=O)NCc2nc3ccc(-c4cccc(OC(F)(F)F)c4)nc3[nH]2)c1` [Compound 29], the IC50 on BRM and at BRG-1 was 100 to 1000 nM throughout.

`C[C@@H]1CN(c2cccc(-c3ccc4nc(CNC(=O)c5ccn(S(C)(=O)=O)c5)[nH]c4n3)c2)C[C@H](C)O1` [Compound 13]: the IC50 against BRM and on BRG-1 was 10 to 100 nM in each case.

With `CS(=O)(=O)n1ccc(C(=O)NCc2cc3nc(-c4cncc(C5CC5)n4)ccc3cn2)c1` [Compound 80, N-[[2-(6-cyclopropylpyrazin-2-yl)-1,6-naphthyridin-7-yl]methyl]-1-methylsulfonyl-pyrrole-3-carboxamide], the half-maximal inhibitory concentration (IC50) was 10 to 100 nM on BRM and 100 to 1000 nM at BRG-1.

Turning to `C[C@@H]1CN(c2cccc(-c3ccc4nc(CNC(=O)c5ccn(S(C)(=O)=O)c5)[nH]c4c3)c2)C[C@H](C)O1` [Compound 11], the IC50 against BRM and at BRG-1 was 10 to 100 nM throughout.

On to `CS(=O)(=O)n1ccc(C(=O)NCc2cc3nc(-c4cccc(OC5CC5)c4)ccc3cn2)c1` [Compound 70], for which the IC50 against BRM and at BRG-1 was 100 to 1000 nM in each case.

For `COC(=O)N1CCC[C@H](c2ccc3nc(CNC(=O)c4ccn(S(C)(=O)=O)c4)[nH]c3n2)C1` [Compound 26], the IC50 is 100 to 1000 nM against BRM and more than 1000 nM at BRG-1.

For the compound `CC(C)(C)n1ccc(C(=O)NCc2nc3ccc(-c4ccc(CC#N)cc4)cc3[nH]2)c1` [Compound 53], the half-maximal inhibitory concentration (IC50) against BRM and on BRG-1 was 100 to 1000 nM each time.

As for `CC(C)(C)n1ccc(C(=O)NCc2nc3ccc(-c4cncc5ccccc45)cc3[nH]2)c1` [Compound 38], the IC50 against BRM and on BRG-1 was 100 to 1000 nM throughout.

Consider `Cn1ncc2c(-c3ccc4nc(CNC(=O)c5ccn(C(C)(C)C)c5)[nH]c4c3)cccc21` [Compound 48], for which the IC50 against BRM and at BRG-1 was 10 to 100 nM throughout.

Consider `COc1ccc(-c2ccc3nc(CNC(=O)c4ccn(C(C)(C)C)c4)[nH]c3c2)cc1Cl` [Compound 35], for which the IC50 against BRM lay in the range of 10 to 100 nM; on BRG-1, 100 to 1000 nM.

As to `CC(C)(C)n1ccc(C(=O)NCc2nc3ccc(-c4ccc5c(c4)CCO5)cc3[nH]2)c1` [Compound 40], the IC50 on BRM and at BRG-1 was 100 to 1000 nM each time.

On to `CS(=O)(=O)n1ccc(C(=O)NCc2cc3nc(-c4ccc(N5CCC5)cc4)ccc3cn2)c1` [Compound 63], for which the concentration for half-maximal inhibition (IC50) at BRM and on BRG-1 was 100 to 1000 nM throughout.

Consider `C[C@@H]1CN(c2cccc(-c3ccc4cnc(CNC(=O)c5ccn(C(C)(C)C)n5)cc4n3)n2)C[C@H](C)O1` [Compound 78], for which the IC50 against BRM lay in the range of 10 to 100 nM; at BRG-1 it was 100 to 1000 nM.

`Cn1ccc2cc(-c3ccc4nc(CNC(=O)c5ccn(C(C)(C)C)c5)[nH]c4c3)ccc21` [Compound 32]: the IC50 against BRM and on BRG-1 was 10 to 100 nM in each case.

Take `COc1cccc(-c2ccc3nc(CNC(=O)c4cc(C)n(S(C)(=O)=O)c4)[nH]c3c2)c1` [Compound 17]: the IC50 against BRM and at BRG-1 was 10 to 100 nM in each case.

On to `COc1cccc(-c2ccc3nc(CNC(=O)c4ccn(C(C)(C)C)c4)[nH]c3c2)c1` [Compound 16], for which the 50% inhibitory concentration (IC50) against BRM and at BRG-1 was 100 to 1000 nM each time.

As to `COc1ncc(-c2ccc3nc(CNC(=O)c4ccn(C(C)(C)C)c4)[nH]c3c2)cc1Cl` [Compound 60], the IC50 at BRM lay within 10 to 100 nM; on BRG-1, 100 to 1000 nM.

As for `C[C@@H]1CN(c2cccc(-c3ccc4nc(CNC(=O)c5ccn(C6(C#N)CC6)c5)[nH]c4n3)c2)C[C@H](C)O1` [Compound 18], the half-inhibitory concentration (IC50) at BRM and at BRG-1 was 100 to 1000 nM throughout.

`CN1Cc2ccc(-c3ccc4nc(CNC(=O)c5ccn(C(C)(C)C)c5)[nH]c4c3)cc2C1=O` [Compound 31]: the IC50 against BRM and at BRG-1 was 10 to 100 nM in each case.

For the compound `CC(C)(C)OCc1cccc(-c2ccc3nc(CNC(=O)c4ccn(C(C)(C)C)c4)[nH]c3c2)c1` [Compound 46], the IC50 against BRM was 10 to 100 nM; at BRG-1, 100 to 1000 nM.

With `CC(C)S(=O)(=O)n1ccc(C(=O)NCc2nc3ccc(-c4cccc(-c5ccncc5)c4)nc3[nH]2)c1` [Compound 3], the IC50 on BRM lay within 10 to 100 nM; on BRG-1, 100 to 1000 nM.

For `CN1CCOc2ccc(-c3ccc4cnc(CNC(=O)c5ccn(S(C)(=O)=O)c5)cc4n3)cc21` [Compound 69], the 50% inhibitory concentration (IC50) against BRM was 10 to 100 nM; on BRG-1, 100 to 1000 nM.

As to `Cn1cc2ccc(-c3ccc4nc(CNC(=O)c5ccn(C(C)(C)C)c5)[nH]c4c3)cc2n1` [Compound 33], the concentration for half-maximal inhibition (IC50) against BRM and on BRG-1 was 10 to 100 nM in each case.

As for `CC(C)(C)n1ccc(C(=O)NCc2nc3ccc(-c4ccc(N5CCOCC5)nc4)cc3[nH]2)c1` [Compound 55], the IC50 against BRM and on BRG-1 was 100 to 1000 nM throughout.

As to `CC(C)(C)n1ccc(C(=O)NCc2nc3ccc(-c4ccc(C5CC5)cc4)cc3[nH]2)c1` [Compound 37], the half-maximal inhibitory concentration (IC50) against BRM and on BRG-1 was 100 to 1000 nM throughout.

With `C[C@@H]1CN(c2ccc(-c3ccc4nc(CNC(=O)c5ccn(S(C)(=O)=O)c5)[nH]c4n3)cc2)C[C@H](C)O1` [Compound 14], the 50% inhibitory concentration (IC50) at BRM and at BRG-1 was 100 to 1000 nM each time.

For `Cc1nc2cc(-c3ccc4nc(CNC(=O)c5ccn(C(C)(C)C)c5)[nH]c4c3)ccc2s1` [Compound 50], the 50% inhibitory concentration (IC50) against BRM lay within 10 to 100 nM; at BRG-1, 100 to 1000 nM.

As for `CC(C)S(=O)(=O)n1ccc(C(=O)NCc2nc3ccc(-c4ccc5ccn(C)c(=O)c5c4)cc3[nH]2)c1` [Compound 24], the IC50 on BRM and at BRG-1 was 100 to 1000 nM each time.

The values above are taken from patent US12649737B2, “Compounds and uses thereof” (Foghorn Therapeutics Inc., priority 2020, dated 2026).
